# Reference: patent US10681909B2, “Herbicidal triazoles” (FMC Corporation, priority 2014, dated 2020)
# Tests used:
# pigweed [1] = assay: Test A preemergence; type: in vivo, Amaranthus retroflexus; settings: 0 to 100 scale (0 no effect, 100 complete control)
# Procedure, shortened: (§1)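 Pre- and postemergence spray tests in a loam soil–sand mixture: seeded soil received a directed spray, while established seedlings 2–10 cm high at the one- to two-leaf stage were treated over the top. Compounds were carried in non-phytotoxic solvent with surfactant.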
# wheat = assay: Test A postemergence; type: in vivo, Triticum aestivum; settings: 0 to 100 scale (0 no effect, 100 complete control), approx. 10 d
# Procedure, shortened: as §1
# sedge, umbrella = assay: Test B flooded paddy test; type: in vivo, Cyperus difformis; settings: 250 g ai/ha, applied to paddy water at 2-leaf stage, visual rating after 13 to 15 d, scale 0 (no effect) to 100 (complete control)
# Procedure, shortened: (§2)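 Pots were flooded to 3 cm above the soil at treatment, and compounds were applied directly into the paddy water. That depth was held throughout. After 13 to 15 d in a greenhouse, plants were rated visually against untreated controls.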
# oat, wild = assay: Test C postemergence; type: in vivo, Avena fatua
# Source text: (§3) Seeds of plant species selected from blackgrass (Alopecurus myosuroides), ryegrass, Italian (Italian ryegrass, Lolium multiflorum), wheat (winter wheat, Triticum aestivum), galium (catchweed bedstraw, Galium aparine), corn (Zea mays), crabgrass, large (large crabgrass, Digitaria sanguinalis), foxtail, giant, (giant foxtail, Setaria faberii), johnsongrass (Sorghum halepense), lambsquarters (Chenopodium album), morningglory (Ipomoea coccinea), nutsedge, yellow (yellow nutsedge, Cyperus esculentus), pigweed (Amaranthus retroflexus), ragweed (common ragweed, Ambrosia elatior), soybean (Glycine max), barnyardgrass (Echinochloa crus-galli), oilseed rape (Brassica napus), waterhemp (common waterhemp, Amaranthus rudis), and velvetleaf (Abutilon theophrasti) were planted into a blend of loam soil and sand and treated preemergence with test chemicals formulated in a non-phytotoxic solvent mixture which included a surfactant. At the same time, plants selected from these crop and weed species and also chickweed (common chickweed, Stellaria media), oat, wild (wild oat, Avena fatua), and kochia (Kochia scoparia), were planted in pots containing Sunshine Redi-Earth® planting medium comprising spaghnum peat moss, vermiculite, starter nutrients and dolomitic limestone and treated with postemergence applications of test chemicals formulated in the same manner. Plants ranged in height from 2 to 18 cm (1- to 4-leaf stage) for postemergence treatments. […] A dash (-) response means no test result.
# barnyardgrass [2] = assay: Test B flooded paddy test; type: in vivo, Echinochloa crus-galli; settings: 250 g ai/ha, applied to paddy water at 2-leaf stage, visual rating after 13 to 15 d, scale 0 (no effect) to 100 (complete control)
# Procedure, shortened: as §2
# foxtail, giant [3] = assay: Test C postemergence; type: in vivo, Setaria faberii
# Source text: as §3
# barnyardgrass [4] = assay: Test C postemergence; type: in vivo, Echinochloa crus-galli
# Source text: as §3
# lambsquarters = assay: Test C postemergence; type: in vivo, Chenopodium album
# Source text: as §3
# wheat (winter wheat) = assay: Test C postemergence; type: in vivo, Triticum aestivum
# Source text: as §3
# foxtail, giant [5] = assay: Test A postemergence; type: in vivo, Setaria faberii; settings: 0 to 100 scale (0 no effect, 100 complete control), approx. 10 d
# Procedure, shortened: as §1
# oilseed rape = assay: Test C postemergence; type: in vivo, Brassica napus
# Source text: as §3
# waterhemp = assay: Test C postemergence; type: in vivo, Amaranthus rudis
# Source text: as §3
# nutsedge, yellow = assay: Test C postemergence; type: in vivo, Cyperus esculentus
# Source text: as §3
# chickweed = assay: Test C postemergence; type: in vivo, Stellaria media
# Source text: as §3
# galium = assay: Test C postemergence; type: in vivo, Galium aparine
# Source text: as §3
# ryegrass, Italian = assay: Test C postemergence; type: in vivo, Lolium multiflorum
# Source text: as §3
# pigweed [6] = assay: Test A postemergence; type: in vivo, Amaranthus retroflexus; settings: 0 to 100 scale (0 no effect, 100 complete control), approx. 10 d
# Procedure, shortened: as §1
# soybean = assay: Test C postemergence; type: in vivo, Glycine max
# Source text: as §3
# blackgrass = assay: Test C postemergence; type: in vivo, Alopecurus myosuroides
# Source text: as §3
# corn = assay: Test C postemergence; type: in vivo, Zea mays
# Source text: as §3
smiles,measurement,setting,value
Fc1ccc(-c2nc(OCC(F)(F)F)n(Cc3ccnc(C(F)(F)F)c3)n2)cc1 [Compound 30],"Plant response rating, Pigweed",pigweed [1]; 125 g ai/ha,100
same,"Plant response rating, Pigweed","pigweed [1]; 500 g ai/ha, approx. 10 d",100
same,"Plant response rating, Wheat",wheat; 125 g ai/ha,10
same,"Plant response rating, Wheat",wheat; 500 g ai/ha,30
same,"Plant response rating, Sedge, Umbrella, Flood","sedge, umbrella",90
same,Plant response rating (scale of 0 to 100 where 0 is no effect and 100 is complete control),"oat, wild; 31 g ai/ha",25
same,Plant response rating (scale of 0 to 100 where 0 is no effect and 100 is complete control),"oat, wild; 62 g ai/ha",15
same,Plant response rating (scale of 0 to 100 where 0 is no effect and 100 is complete control),"oat, wild; 125 g ai/ha",30
same,Plant response rating (scale of 0 to 100 where 0 is no effect and 100 is complete control),"oat, wild; 250 g ai/ha",45
same,"Plant response rating, Barnyardgrass, Flood",barnyardgrass [2],30
same,Plant response rating (scale of 0 to 100 where 0 is no effect and 100 is complete control),"foxtail, giant [3]; 31 g ai/ha",5
same,Plant response rating (scale of 0 to 100 where 0 is no effect and 100 is complete control),"foxtail, giant [3]; 62 g ai/ha",10
same,Plant response rating (scale of 0 to 100 where 0 is no effect and 100 is complete control),"foxtail, giant [3]; 125 g ai/ha",25
same,Plant response rating (scale of 0 to 100 where 0 is no effect and 100 is complete control),"foxtail, giant [3]; 250 g ai/ha",25
same,Plant response rating (scale of 0 to 100 where 0 is no effect and 100 is complete control),barnyardgrass [4]; 31 g ai/ha,25
same,Plant response rating (scale of 0 to 100 where 0 is no effect and 100 is complete control),barnyardgrass [4]; 62 g ai/ha,20
same,Plant response rating (scale of 0 to 100 where 0 is no effect and 100 is complete control),barnyardgrass [4]; 125 g ai/ha,40
same,Plant response rating (scale of 0 to 100 where 0 is no effect and 100 is complete control),barnyardgrass [4]; 250 g ai/ha,85
same,Plant response rating (scale of 0 to 100 where 0 is no effect and 100 is complete control),lambsquarters; 31 g ai/ha,70
same,Plant response rating (scale of 0 to 100 where 0 is no effect and 100 is complete control),lambsquarters; 62 g ai/ha,85
same,Plant response rating (scale of 0 to 100 where 0 is no effect and 100 is complete control),lambsquarters; 125 g ai/ha,95
same,Plant response rating (scale of 0 to 100 where 0 is no effect and 100 is complete control),lambsquarters; 250 g ai/ha,95
same,Plant response rating (scale of 0 to 100 where 0 is no effect and 100 is complete control),wheat (winter wheat); 31 g ai/ha,5
same,Plant response rating (scale of 0 to 100 where 0 is no effect and 100 is complete control),wheat (winter wheat); 62 g ai/ha,5
same,Plant response rating (scale of 0 to 100 where 0 is no effect and 100 is complete control),wheat (winter wheat); 125 g ai/ha,15
same,Plant response rating (scale of 0 to 100 where 0 is no effect and 100 is complete control),wheat (winter wheat); 250 g ai/ha,20
same,"Plant response rating, Foxtail, Giant","foxtail, giant [5]; 125 g ai/ha",80
same,"Plant response rating, Foxtail, Giant","foxtail, giant [5]; 500 g ai/ha",90
same,Plant response rating (scale of 0 to 100 where 0 is no effect and 100 is complete control),"oilseed rape; Oilsee Rape, 250 g ai/ha",95
same,Plant response rating (scale of 0 to 100 where 0 is no effect and 100 is complete control),"oilseed rape; Oilseed Rape, 31 g ai/ha",35
same,Plant response rating (scale of 0 to 100 where 0 is no effect and 100 is complete control),"oilseed rape; Oilseed Rape, 62 g ai/ha",80
same,Plant response rating (scale of 0 to 100 where 0 is no effect and 100 is complete control),"oilseed rape; Oilseed Rape, 125 g ai/ha",95
same,Plant response rating (scale of 0 to 100 where 0 is no effect and 100 is complete control),waterhemp; 31 g ai/ha,95
same,Plant response rating (scale of 0 to 100 where 0 is no effect and 100 is complete control),waterhemp; 62 g ai/ha,98
same,Plant response rating (scale of 0 to 100 where 0 is no effect and 100 is complete control),waterhemp; 125 g ai/ha,95
same,Plant response rating (scale of 0 to 100 where 0 is no effect and 100 is complete control),waterhemp; 250 g ai/ha,98
same,Plant response rating (scale of 0 to 100 where 0 is no effect and 100 is complete control),"nutsedge, yellow; 31 g ai/ha",5
same,Plant response rating (scale of 0 to 100 where 0 is no effect and 100 is complete control),"nutsedge, yellow; 62 g ai/ha",5
same,Plant response rating (scale of 0 to 100 where 0 is no effect and 100 is complete control),"nutsedge, yellow; 125 g ai/ha",10
same,Plant response rating (scale of 0 to 100 where 0 is no effect and 100 is complete control),"nutsedge, yellow; 250 g ai/ha",15
same,Plant response rating (scale of 0 to 100 where 0 is no effect and 100 is complete control),chickweed; 31 g ai/ha,95
same,Plant response rating (scale of 0 to 100 where 0 is no effect and 100 is complete control),chickweed; 62 g ai/ha,95
same,Plant response rating (scale of 0 to 100 where 0 is no effect and 100 is complete control),chickweed; 125 g ai/ha,100
same,Plant response rating (scale of 0 to 100 where 0 is no effect and 100 is complete control),chickweed; 250 g ai/ha,100
same,Plant response rating (scale of 0 to 100 where 0 is no effect and 100 is complete control),galium; 31 g ai/ha,80
same,Plant response rating (scale of 0 to 100 where 0 is no effect and 100 is complete control),galium; 62 g ai/ha,80
same,Plant response rating (scale of 0 to 100 where 0 is no effect and 100 is complete control),galium; 125 g ai/ha,90
same,Plant response rating (scale of 0 to 100 where 0 is no effect and 100 is complete control),galium; 250 g ai/ha,90
same,Plant response rating (scale of 0 to 100 where 0 is no effect and 100 is complete control),"ryegrass, Italian; 31 g ai/ha",20
same,Plant response rating (scale of 0 to 100 where 0 is no effect and 100 is complete control),"ryegrass, Italian; 62 g ai/ha",25
same,Plant response rating (scale of 0 to 100 where 0 is no effect and 100 is complete control),"ryegrass, Italian; 125 g ai/ha",30
same,Plant response rating (scale of 0 to 100 where 0 is no effect and 100 is complete control),"ryegrass, Italian; 250 g ai/ha",50
same,"Plant response rating, Pigweed",pigweed [6]; 125 g ai/ha,100
same,"Plant response rating, Pigweed",pigweed [6]; 500 g ai/ha,100
same,Plant response rating (scale of 0 to 100 where 0 is no effect and 100 is complete control),soybean; 31 g ai/ha,25
same,Plant response rating (scale of 0 to 100 where 0 is no effect and 100 is complete control),soybean; 62 g ai/ha,45
same,Plant response rating (scale of 0 to 100 where 0 is no effect and 100 is complete control),soybean; 125 g ai/ha,60
same,Plant response rating (scale of 0 to 100 where 0 is no effect and 100 is complete control),soybean; 250 g ai/ha,75
same,Plant response rating (scale of 0 to 100 where 0 is no effect and 100 is complete control),blackgrass; 31 g ai/ha,25
same,Plant response rating (scale of 0 to 100 where 0 is no effect and 100 is complete control),blackgrass; 62 g ai/ha,30
same,Plant response rating (scale of 0 to 100 where 0 is no effect and 100 is complete control),blackgrass; 125 g ai/ha,40
same,Plant response rating (scale of 0 to 100 where 0 is no effect and 100 is complete control),blackgrass; 250 g ai/ha,60
same,Plant response rating (scale of 0 to 100 where 0 is no effect and 100 is complete control),corn; 31 g ai/ha,15
same,Plant response rating (scale of 0 to 100 where 0 is no effect and 100 is complete control),corn; 62 g ai/ha,10
same,Plant response rating (scale of 0 to 100 where 0 is no effect and 100 is complete control),corn; 125 g ai/ha,25
same,Plant response rating (scale of 0 to 100 where 0 is no effect and 100 is complete control),corn; 250 g ai/ha,20
